Source: patent publication US10544130B2, “Metallo-beta-lactamase inhibitors” (priority 2015, dated 2020)

Each compound was assayed on Pseudomonas aeruginosa PAO1 MB9798 (efflux+, IMP-1). Details: ratio MITC95 PA 9798/MITC95 PA 9799; imipenem at 2 μg/mL.
In short: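 Isogenic PAO1 pair (efflux+ MB9798, efflux− MB9799, both IMP-1) tested by microbroth MIC with fixed imipenem and/or ceftazidime, usually at CLSI breakpoint, plus fixed class A/C inhibitor against AmpC. MBL inhibitor titrated; concentration restoring susceptibility recorded and fold difference between strains taken as efflux extent.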

Question: With `Nc1nc2c(-c3ccc(S(=O)(=O)NC[C@@H](N)CO)c(S(N)(=O)=O)c3-c3nn[nH]n3)cccc2[nH]1` [Example 190, 4-(2-amino-1H-benzo[d]imidazol-4-yl)-N1-((R)-2-amino-3-hydroxypropyl)-3-(2H-tetrazol-5-yl)benzene-1,2-disulfonamide] as the compound, how does the Efflux ratio read?
Answer: Its Efflux ratio is 0.50.

Question: With `Nc1nc2c(-c3ccc(S(=O)(=O)N[C@]4(CO)CCNC4)c(S(N)(=O)=O)c3-c3nnn[nH]3)cccc2[nH]1` [Example 177, (R)-4-(2-amino-1H-benzo[d]imidazol-4-yl)-N1-(3-(hydroxymethyl)pyrrolidin-3-yl)-3-(1H-tetrazol-5-yl)benzene-1,2-disulfonamide] as the compound, how does the Efflux ratio read?
Answer: Its Efflux ratio is 0.50.

Question: For `NS(=O)(=O)c1c(S(=O)(=O)N[C@@H]2CCNC2)ccc(-c2cnc3ccccn23)c1-c1nnn[nH]1` [Example 140, (R)-4-(imidazo[1,2-a]pyridin-3-yl)-N1-(pyrrolidin-3-yl)-3-(1H-tetrazol-5-yl)benzene-1,2-disulfonamide], which Efflux ratio is on record?
Answer: The Efflux ratio was 2.00.

Question: For `CN(C)S(=O)(=O)c1ccc(-c2cccc3sc(N)nc23)c(-c2nn[nH]n2)c1S(N)(=O)=O` [Example 151, 4-(2-aminobenzo[d]thiazol-4-yl)-N1,N1-dimethyl-3-(2H-tetrazol-5-yl)benzene-1,2-disulfonamide], which Efflux ratio is on record?
Answer: Its Efflux ratio is 16.00.

Question: How did the Efflux ratio turn out when `Nc1nc2c(-c3ccc(S(=O)(=O)N[C@@H]4CCNC4)c(S(N)(=O)=O)c3-c3nn[nH]n3)cccc2[nH]1` [Example 161, 4-(2-amino-1H-benzo[d]imidazol-4-yl)-N^1—((R)-pyrrolidin-3-yl)-3-(2H-tetrazol-5-yl)benzene-1,2-disulfonamide] was run?
Answer: The Efflux ratio was 0.78.

Question: Which Efflux ratio does the source give for `NCC(CN)NS(=O)(=O)c1ccc(-c2cccc(C3N=NC(N)=N3)c2)c(-c2nn[nH]n2)c1S(N)(=O)=O` (stereo not drawn) [Example 229, 3′-(5-amino-3H-1,2,4-triazol-3-yl)-N4-(1,3-diaminopropan-2-yl)-2-(2H-tetrazol-5-yl)-[1,1′-biphenyl]-3,4-disulfonamide] here?
Answer: The Efflux ratio was 0.50.

Question: For `Nc1nc2c(-c3ccc(S(=O)(=O)NCC4(O)CCNCC4)c(S(N)(=O)=O)c3-c3nnn[nH]3)cccc2s1` [Example 86, 4-(2-aminobenzo[d]thiazol-4-yl)-N^1-((4-hydroxypiperidin-4-yl)methyl)-3-(1H-tetrazol-5-yl)benzene-1,2-disulfonamide], which Efflux ratio is on record?
Answer: Its Efflux ratio is 0.50.

Question: Which Efflux ratio does the source give for `Nc1nc2c(-c3ccc(S(=O)(=O)N[C@H]4CN[C@@H](CO)C4)c(S(N)(=O)=O)c3-c3nnn[nH]3)cccc2s1` [Example 81, 4-(2-amino-1,3-benzothiazol-4-yl)-N1-[(3R,5R)-5-(hydroxymethyl)pyrrolidin-3-yl]-3-(1H-tetrazol-5-yl)benzene-1,2-disulfonamide] here?
Answer: Its Efflux ratio is 0.50.

Question: For `NC[C@H](CO)NS(=O)(=O)c1ccc(-c2cccc3sc(N)nc23)c(-c2nnn[nH]2)c1S(N)(=O)=O` [Example 202, (R)—N^1-(1-amino-3-hydroxypropan-2-yl)-4-(2-aminobenzo[d]thiazol-4-yl)-3-(1H-tetrazol-5-yl)benzene-1,2-disulfonamide], which Efflux ratio is on record?
Answer: Its Efflux ratio is 1.00.

Question: `COCCNS(=O)(=O)c1ccc(-c2cccc3sc(N)nc23)c(-c2nnn[nH]2)c1S(N)(=O)=O` [Example 24, 4-(2-amino-1,3-benzothiazol-4-yl)-N^1-(2-methoxyethyl)-3-(1H-tetrazol-5-yl)benzene-1,2-disulfonamide] was tested. Which Efflux ratio did it give?
Answer: The Efflux ratio was 4.00.

Question: With `NC[C@H](N)CNS(=O)(=O)c1ccc(-c2cccnc2N)c(-c2nn[nH]n2)c1S(N)(=O)=O` [Example 213, (S)-4-(2-aminopyridin-3-yl)-N1-(2,3-diaminopropyl)-3-(2H-tetrazol-5-yl)benzene-1,2-disulfonamide] as the compound, how does the Efflux ratio read?
Answer: Its Efflux ratio is 2.00.

Question: Which Efflux ratio does the source give for `NCC(CN)NS(=O)(=O)c1ccc(-c2cccnc2N)c(-c2nn[nH]n2)c1S(N)(=O)=O` [Example 210, 4-(2-aminopyridin-3-yl)-N1-(1,3-diaminopropan-2-yl)-3-(2H-tetrazol-5-yl)benzene-1,2-disulfonamide] here?
Answer: Its Efflux ratio is 2.00.
